Reference: ChEMBL document CHEMBL1201862, “PubChem BioAssay data set” (2004)
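Assay format: 96-well plates, 48-hour exposure. GI50 is the concentration that inhibits growth by half.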 Calls of active or inactive are those of the source. Rule as the data show it: active = GI50 up to about 1.1 µM and inactive = higher.

How the values were obtained:
Experiment in all cases: growth of human tumour cells (NCI), 48 h
[1] = tested on: ACHN
[2] = tested on: CAKI-1
[3] = tested on: DMS-114
[4] = tested on: DU-145
[5] = tested on: EKVX
[6] = tested on: HCC 2998
[7] = tested on: HCT-15
[8] = tested on: HL-60
[9] = tested on: LXFL 529
[10] = tested on: MDA-MB-435
[11] = tested on: MDA-N
[12] = tested on: MOLT-4
[13] = tested on: NCI-H23
[14] = tested on: OVCAR-3
[15] = tested on: OVCAR-5
[16] = tested on: SK-OV-3
[17] = tested on: SNB-19
[18] = tested on: SR
[19] = tested on: T47D
[20] = tested on: U-251

| Structure (SMILES) | GI50 [1] | GI50 [2] | GI50 [3] | GI50 [4] | GI50 [5] | GI50 [6] | GI50 [7] | GI50 [8] | GI50 [9] | GI50 [10] | GI50 [11] | GI50 [12] | GI50 [13] | GI50 [14] | GI50 [15] | GI50 [16] | GI50 [17] | GI50 [18] | GI50 [19] | GI50 [20] |
| --- | --- | --- | --- | --- | --- | --- | --- | --- | --- | --- | --- | --- | --- | --- | --- | --- | --- | --- | --- | --- |
| CCOc1ccc(NC2=CC(=O)C(=O)c3ccccc32)cc1 | 2.28 µM (inactive) | 8.05 µM (inactive) | 1.88 µM (inactive) | 2.38 µM (inactive) | 16.4 µM (inactive) | 13.1 µM (inactive) | 2.34 µM | 0.459 µM (active) | 3.47 µM (inactive) | 1.8 µM (inactive) | 2.05 µM (inactive) | 8.83 µM (inactive) | 1.91 µM (inactive) | 2.86 µM (inactive) | 3.77 µM (inactive) | 11.3 µM (inactive) | 2.94 µM (inactive) | 3.4 µM (inactive) | 8.79 µM (inactive) | 3.85 µM (inactive) |
| CC1=NN(C(=O)c2ccccc2O)C(=O)/C1=C/c1ccccc1O | 0.0695 µM (active) | 1.53 µM (inactive) | 0.0853 µM (active) | 0.132 µM (active) | 1.78 µM (inactive) | 3.21 µM (inactive) | 0.292 µM | 0.409 µM (active) | 0.0573 µM (active) | 0.0612 µM (active) | 0.114 µM (active) | 0.295 µM (active) | 0.404 µM (active) | 0.215 µM (active) | 3.74 µM (inactive) | 0.0815 µM (active) | 0.124 µM (active) | 0.251 µM (active) | 0.225 µM (active) | 0.114 µM (active) |
| NC1=NC(=O)/C(=C/c2ccccc2[N+](=O)[O-])C(N)=N1 | > 100 µM (inactive) | > 100 µM (inactive) | > 100 µM (inactive) |  | > 100 µM (inactive) | > 100 µM (inactive) | > 100 µM | > 100 µM (inactive) | > 100 µM (inactive) |  |  | > 100 µM (inactive) | > 100 µM (inactive) | > 100 µM (inactive) | > 100 µM (inactive) | > 100 µM (inactive) | > 100 µM (inactive) | > 100 µM (inactive) |  | > 100 µM (inactive) |
| O=C1C=C(Nc2ccccc2C(=O)CC(=O)C(=O)Nc2cccc(C(F)(F)F)c2)c2ccccc2C1=O | 28.3 µM (inactive) | 64 µM (inactive) | 13 µM (inactive) | 78 µM (inactive) | 37.8 µM (inactive) | > 41.8 µM (inactive) | 19.5 µM | 4.94 µM (inactive) | 18.3 µM (inactive) | 7.5 µM (inactive) | 12.6 µM (inactive) | 4.83 µM (inactive) | 13.6 µM (inactive) | 6.35 µM (inactive) | > 77.1 µM (inactive) | 61.4 µM (inactive) | 54.3 µM (inactive) | 8.85 µM (inactive) | > 100 µM (inactive) | 31.3 µM (inactive) |
